Test results published in patent US20240148720A1, “Use of Histamine Antagonists and Glucocorticoid for Treating and Preventing Neurodegenerative Diseases” (City University of Hong Kong, priority 2022, published 2024).
Structures can show the parent of a compound that is named as a salt.

Legend:
[1] = cited from earlier work
[2] = target: histamine H4 receptor (Homo sapiens, UniProt Q9H3N8); details: cited from earlier work
[3] = cited from earlier work; remark: listed apart in the source
[4] = rats; 100 mg/kg; cited from earlier work
[5] = test system: APP/PS1 mice; assay: Y-maze test, APP/PS1 mice; details: 8-month-old APP/PS1 mice
[6] = test system: 3xTg-AD mice; assay: Y-maze test, 3xTg-AD mice; details: 17-month-old 3xTg-AD mice; VUF6002 2.5 mg/kg daily about 3 months; FIG. 3B
[7] = test system: 3xTg-AD mice; assay: Barnes maze test, 3xTg-AD mice; details: 17-month-old 3xTg-AD mice, VUF6002 2.5 mg/kg daily about 3 months
[8] = test system: APP/PS1 mice; assay: Morris Water Maze test, APP/PS1 mice; details: 8-month-old APP/PS1 mice; for escape latency to find the hidden platform: FIG. 6C
[9] = test system: APP/PS1 mice; assay: Novel object recognition test, APP/PS1 mice; details: 8-month-old APP/PS1 mice; VUF6002 2.5 mg/kg i.p. daily 1 month; vs vehicle; FIG. 2C
[10] = test system: 3xTg-AD mice; assay: Novel object recognition test, 3xTg-AD mice; details: 17-month-old 3xTg-AD mice; VUF6002 2.5 mg/kg daily about 3 months; FIG. 3C
[11] = test system: STZ-treated mice; assay: Barnes maze test, streptozocin-induced sporadic AD mouse model; details: STZ ICV mice, VUF6002 2.5 mg/kg i.p. 21 days
[12] = test system: microglia; assay: Anti-IBA-1 immunostaining of microglia in hippocampal CA1 of 3xTg-AD mice; details: 17-month-old 3xTg-AD mice
[13] = test system: STZ-treated mice; assay: Y-maze spontaneous alternation test, streptozocin-induced sporadic AD mouse model; details: STZ ICV mice; VUF6002 2.5 mg/kg i.p. daily for 21 days; FIG. 1B
[14] = test system: hyperphosphorylated Tau; assay: Anti-AT8 immunostaining of hyperphosphorylated Tau in hippocampus of 3xTg-AD mice; details: 17-month-old 3xTg-AD mice

Chain of histamine H4 receptor (Q9H3N8 whole entry, species assumed): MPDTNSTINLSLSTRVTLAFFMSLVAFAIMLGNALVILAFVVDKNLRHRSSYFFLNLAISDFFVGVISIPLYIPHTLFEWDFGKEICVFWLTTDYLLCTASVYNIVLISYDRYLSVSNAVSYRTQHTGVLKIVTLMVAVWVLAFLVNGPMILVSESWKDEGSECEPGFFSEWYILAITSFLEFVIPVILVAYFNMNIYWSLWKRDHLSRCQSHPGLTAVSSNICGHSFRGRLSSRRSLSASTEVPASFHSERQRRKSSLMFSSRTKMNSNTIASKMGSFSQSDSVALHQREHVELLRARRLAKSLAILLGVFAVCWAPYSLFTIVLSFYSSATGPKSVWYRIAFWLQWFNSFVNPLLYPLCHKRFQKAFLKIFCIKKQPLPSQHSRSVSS

SMILES: CC(C)c1cc(N2CC[C@@H](N)C2)nc(N)n1 [JNJ39758979]
- severe side effects in humans [1]: may induces agranulocytosis in humans

SMILES: CN1CCN2c3ccccc3Cc3ccccc3C2C1 (stereo not shown) [Mianserin]
- binding to histamine receptors [2]: can bind to histamine H1, H3, and H4 receptors

SMILES: S=C(NC1CCCCC1)N1CCC(c2cnc[nH]2)CC1 [Thioperamide]
- binding to histamine receptors [2]: can bind to histamine H3 and H4 receptors

SMILES: CN1CCN(C(=O)c2nc3cc(Cl)ccc3[nH]2)CC1 [VUF6002, 1-[(5-chloro-1H-benzimidazol-2-yl)carbonyl]-4-methylpiperazine maleate]
- severe side effect on animal models [3]: has not been reported to have a severe side effect
- anti-inflammation effect [4]: revealed an anti-inflammation effect
- spontaneous alternation rate ([5]; VUF6002 2.5 mg/kg i.p. daily 1 month, vs vehicle, FIG. 2B): significantly elevates
- short-term memory, performance on Y-maze [6]: completely reverse the memory deficit
- performance during the training phase of Barnes Maze test ([7]; FIG. 3D): marked improvement
- primary errors to find the target hole, probe test ([7]; vs vehicle, FIG. 3E): make fewer errors to find the target hole
- time spent in the target quadrant, probe test ([7]; vs vehicle, FIG. 3F): spend more time in the target quadrant
- long-term spatial memory during the training phase ([8]; VUF6002 2.5 mg/kg i.p. daily 1 month, FIG. 2D): markedly improved
- number of platform crosses, probe test ([8]; VUF6002 2.5 mg/kg i.p. daily 1 month, vs vehicle, FIG. 2E): make more attempts to swim across the original location of the platform
- time spent in the target quadrant, probe test ([8]; VUF6002 2.5 mg/kg i.p. daily 1 month, vs vehicle, FIG. 2F): spend more time on searching the platform in the target quadrant
- recognition index [9]: significantly elevates
- short-term memory, performance on novel object recognition test [10]: completely reverse the memory deficit
- error to find the target hole, probe trial ([11]; FIG. 1E): reduces the error to find the target hole
- time spent in target quadrant, probe trial ([11]; FIG. 1F): markedly increases the time spent in target quadrant
- latency to get into the hidden escape box (long-term spatial memory) ([11]; day 25 post injection, FIG. 1D): completely reverses the STZ-induced long-term memory deficits
- intensity of Iba-1-positive microglia, hippocampal CA1 region ([12]; VUF6002 2.5 mg/kg 3 months, FIG. 5A): markedly reduces the intensity of Iba-1-positive
- density of microglia, hippocampal CA1 region ([12]; VUF6002 2.5 mg/kg, FIG. 5B): significantly reduces the density of microglia
- spontaneous alternation rate (short-term spatial working memory) [13]: completely reversed
- mean intensity of AT8 (p-Tau), CA1 region of hippocampus ([14]; VUF6002 2.5 mg/kg 3 months, FIG. 4C-4D): markedly reduces the mean intensity of AT8

SMILES: C[C@@H]1C[C@H]2[C@@H]3CCC4=CC(=O)C=C[C@]4(C)[C@@]3(F)[C@@H](O)C[C@]2(C)[C@@]1(O)C(=O)CO [dexamethasone, (11β,16α)-9-Fluoro-11,17,21-trihydroxy-16-methylpregna-1,4-diene-3,20-dione]
- spontaneous alternation rate (short-term spatial working memory) ([5]; dexamethasone 1 mg/kg i.p. two months, FIG. 6A): prominently improves the short-term memory deficits
- escape latency to find the hidden platform ([8]; dexamethasone 1 mg/kg i.p. one month, vs vehicle): does not significantly reduce the latency
- escape latency to find the hidden platform ([8]; dexamethasone 1 mg/kg i.p. two months): reverses the long-term memory deficits
- number of platform crosses, probe test ([8]; dexamethasone 1 mg/kg i.p. two months, vs vehicle, FIG. 6D): conspicuously increased number of platform crosses
- time spent in the target quadrant, probe test ([8]; dexamethasone 1 mg/kg i.p. two months, vs vehicle, FIG. 6E): conspicuously increased
- reduction of phosphorylated Tau (AT8) intensity, hippocampal subiculum area ([14]; dexamethasone from 14- to 17-month-old, FIG. 7C-7D): 53.3%
